What all share (type): biochemical
The target in assay [1] is recombinant human PI3Kδ (6-His(p110-p85α)) (Homo sapiens (Human), UniProt O00329). Put plainly: Enzymatic activity assay for recombinant human PI3Kδ (ADP-Glo). As to conditions: 0.6 nM PI3Kδ, 20 μM ATP, 80 μM DiC8-PIP2, ADP-Glo. Here is the method:
(§1) Enzymatic Activity Assay for Recombinant Human PI3K α, β, δ and γ.
(§2) The activity of recombinant human PI3Kγ ((aa144-1102)-6His) and PI3Kα, β, δ (6-His(p110-p85α)) was determined by measuring the ADP level after phosphorylation of DiC8-PIP2 using a commercially available ADP-Glo™ kit from Promega. The assay was carried out in white low volume 384 well plates in a final volume of 14 μl at R.T. The assay conditions contained the following: 50 mM Tris buffer pH 7.4, 2.1 mM DTT, 3 mM MgCl2, 0.05% CHAPS, 20 μM ATP, 80 μM DiC8-PIP2 and 1.2 nM PI3Kα, β, γ or 0.6 nM PI3Kδ. […] Routinely, inhibitors were pre-incubated with 3 μl of enzyme for 15 min prior to the addition of 2 μl substrate mixture for a further 60 min enzyme reaction. The phosphorylation was stopped with the addition of 3 μl ADP-Glo™ reagent (stop solution) followed by a 40 min incubation. Prior to detection 6 μl of ADP-Glo™ Kinase Detection Reagent was added and the plates were read in a micro plate reader using a Luminescence filter. All additions were followed by a short centrifugation step.
(ADP-Glo turns the ADP formed in a reaction into a luminescent signal.)

The target in assay [2] is recombinant human PI3Kβ (6-His(p110-p85α)) (Homo sapiens (Human), UniProt P42338). Put plainly: Enzymatic activity assay for recombinant human PI3Kβ (ADP-Glo). The following applies: 1.2 nM PI3Kβ, 20 μM ATP, 80 μM DiC8-PIP2, ADP-Glo. Here is the method: as §1
as §2, with “PI3Kδ. Potential inhibitors were made up in DMSO and then diluted in the assay to give a final concentration of not exceeding 1% (v/v) DMSO.” for “PI3Kδ.”

For assay [3], the target named is recombinant human PI3Kα (6-His(p110-p85α)) (Homo sapiens (Human), UniProt P42336). Put plainly: Enzymatic activity assay for recombinant human PI3Kα (ADP-Glo). The following applies: 1.2 nM PI3Kα, 20 μM ATP, 80 μM DiC8-PIP2, ADP-Glo. Here is the method:
as §1
as §2, with “PI3Kδ. Potential inhibitors were made up in DMSO and then diluted in the assay to give a final concentration of not exceeding 1% (v/v) DMSO.” for “PI3Kδ.”

Assay [4] concerns the target recombinant human PI3Kγ ((aa144-1102)-6His) (Homo sapiens (Human), UniProt P48736). The experiment in a line: Enzymatic activity assay for recombinant human PI3Kγ (ADP-Glo). As to conditions: 1.2 nM PI3Kγ, 20 μM ATP, 80 μM DiC8-PIP2, ADP-Glo. Here is the method:
as §1, §2

recombinant human PI3Kγ ((aa144-1102)-6His), sequence (P48736 144-1102): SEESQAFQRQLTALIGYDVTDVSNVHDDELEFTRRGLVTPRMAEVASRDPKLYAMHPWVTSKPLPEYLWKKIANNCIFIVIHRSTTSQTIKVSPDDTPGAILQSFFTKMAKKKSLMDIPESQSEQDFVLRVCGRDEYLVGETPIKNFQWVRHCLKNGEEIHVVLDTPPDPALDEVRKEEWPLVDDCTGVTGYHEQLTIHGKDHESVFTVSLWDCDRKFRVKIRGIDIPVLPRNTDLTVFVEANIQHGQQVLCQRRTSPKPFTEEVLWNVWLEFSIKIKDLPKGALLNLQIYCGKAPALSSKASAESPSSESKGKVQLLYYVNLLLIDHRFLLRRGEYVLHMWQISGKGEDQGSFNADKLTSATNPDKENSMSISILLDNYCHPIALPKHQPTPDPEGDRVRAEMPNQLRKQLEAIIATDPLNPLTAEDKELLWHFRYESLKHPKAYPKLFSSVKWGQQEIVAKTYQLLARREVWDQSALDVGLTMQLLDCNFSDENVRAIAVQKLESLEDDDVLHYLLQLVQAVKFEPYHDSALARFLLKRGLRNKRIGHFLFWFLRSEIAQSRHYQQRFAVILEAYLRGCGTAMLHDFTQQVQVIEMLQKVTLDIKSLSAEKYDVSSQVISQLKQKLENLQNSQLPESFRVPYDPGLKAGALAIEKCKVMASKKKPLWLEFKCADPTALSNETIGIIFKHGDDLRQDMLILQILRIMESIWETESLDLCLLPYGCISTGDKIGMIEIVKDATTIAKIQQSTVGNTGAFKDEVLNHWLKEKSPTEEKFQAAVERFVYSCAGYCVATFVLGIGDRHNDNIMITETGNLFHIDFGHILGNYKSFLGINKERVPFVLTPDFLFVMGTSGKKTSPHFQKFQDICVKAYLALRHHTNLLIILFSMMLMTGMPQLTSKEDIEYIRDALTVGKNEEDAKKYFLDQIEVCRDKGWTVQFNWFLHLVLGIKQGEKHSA
recombinant human PI3Kδ (6-His(p110-p85α)), sequence (O00329 whole entry): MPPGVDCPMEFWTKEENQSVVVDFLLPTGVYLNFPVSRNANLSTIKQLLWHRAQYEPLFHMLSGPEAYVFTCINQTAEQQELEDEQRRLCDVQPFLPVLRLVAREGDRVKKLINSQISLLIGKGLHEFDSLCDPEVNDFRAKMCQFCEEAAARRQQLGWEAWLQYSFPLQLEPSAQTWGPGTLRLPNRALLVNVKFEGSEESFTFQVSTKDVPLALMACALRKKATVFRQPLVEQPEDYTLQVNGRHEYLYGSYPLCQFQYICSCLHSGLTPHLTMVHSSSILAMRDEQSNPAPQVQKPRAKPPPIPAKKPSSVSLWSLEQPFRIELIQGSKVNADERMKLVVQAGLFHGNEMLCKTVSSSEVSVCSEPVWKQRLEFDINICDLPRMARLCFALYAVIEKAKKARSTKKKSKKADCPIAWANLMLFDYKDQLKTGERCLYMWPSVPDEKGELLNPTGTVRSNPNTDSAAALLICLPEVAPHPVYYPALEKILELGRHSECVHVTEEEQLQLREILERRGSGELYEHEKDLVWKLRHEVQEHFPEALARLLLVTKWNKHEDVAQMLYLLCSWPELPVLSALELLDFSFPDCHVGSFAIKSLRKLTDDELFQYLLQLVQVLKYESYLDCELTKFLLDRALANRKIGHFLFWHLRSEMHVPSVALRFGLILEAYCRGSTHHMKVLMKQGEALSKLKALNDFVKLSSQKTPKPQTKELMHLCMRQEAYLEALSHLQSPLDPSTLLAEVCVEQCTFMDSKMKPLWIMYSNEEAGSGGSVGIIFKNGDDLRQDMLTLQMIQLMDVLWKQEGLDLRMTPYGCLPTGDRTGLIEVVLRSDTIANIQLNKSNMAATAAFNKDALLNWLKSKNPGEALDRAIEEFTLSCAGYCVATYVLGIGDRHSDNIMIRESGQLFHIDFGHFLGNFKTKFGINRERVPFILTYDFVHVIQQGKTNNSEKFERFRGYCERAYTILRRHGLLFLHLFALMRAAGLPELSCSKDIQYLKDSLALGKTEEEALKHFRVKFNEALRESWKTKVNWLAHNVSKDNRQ
recombinant human PI3Kδ (6-His(p110-p85α)), sequence (P27986 whole entry partner): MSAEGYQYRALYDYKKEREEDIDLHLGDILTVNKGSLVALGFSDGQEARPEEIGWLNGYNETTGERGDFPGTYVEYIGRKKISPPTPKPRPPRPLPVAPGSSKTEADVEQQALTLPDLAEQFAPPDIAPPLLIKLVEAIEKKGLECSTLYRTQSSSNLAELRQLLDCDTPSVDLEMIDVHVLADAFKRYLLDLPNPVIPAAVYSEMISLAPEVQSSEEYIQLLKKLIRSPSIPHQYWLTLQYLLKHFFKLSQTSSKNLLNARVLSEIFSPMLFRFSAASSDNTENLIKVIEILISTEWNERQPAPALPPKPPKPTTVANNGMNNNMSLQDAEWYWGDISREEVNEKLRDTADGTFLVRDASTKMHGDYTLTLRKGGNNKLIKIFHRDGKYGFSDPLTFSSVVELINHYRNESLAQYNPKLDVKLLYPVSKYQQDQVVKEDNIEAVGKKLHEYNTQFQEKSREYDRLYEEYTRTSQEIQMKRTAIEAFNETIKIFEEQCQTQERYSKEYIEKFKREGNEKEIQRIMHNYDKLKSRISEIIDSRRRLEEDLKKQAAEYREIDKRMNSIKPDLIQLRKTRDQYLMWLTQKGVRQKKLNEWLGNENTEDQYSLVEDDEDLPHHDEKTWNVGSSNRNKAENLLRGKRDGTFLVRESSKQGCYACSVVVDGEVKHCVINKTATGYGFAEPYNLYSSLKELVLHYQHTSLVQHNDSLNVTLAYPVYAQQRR
recombinant human PI3Kβ (6-His(p110-p85α)), sequence (P42338 whole entry): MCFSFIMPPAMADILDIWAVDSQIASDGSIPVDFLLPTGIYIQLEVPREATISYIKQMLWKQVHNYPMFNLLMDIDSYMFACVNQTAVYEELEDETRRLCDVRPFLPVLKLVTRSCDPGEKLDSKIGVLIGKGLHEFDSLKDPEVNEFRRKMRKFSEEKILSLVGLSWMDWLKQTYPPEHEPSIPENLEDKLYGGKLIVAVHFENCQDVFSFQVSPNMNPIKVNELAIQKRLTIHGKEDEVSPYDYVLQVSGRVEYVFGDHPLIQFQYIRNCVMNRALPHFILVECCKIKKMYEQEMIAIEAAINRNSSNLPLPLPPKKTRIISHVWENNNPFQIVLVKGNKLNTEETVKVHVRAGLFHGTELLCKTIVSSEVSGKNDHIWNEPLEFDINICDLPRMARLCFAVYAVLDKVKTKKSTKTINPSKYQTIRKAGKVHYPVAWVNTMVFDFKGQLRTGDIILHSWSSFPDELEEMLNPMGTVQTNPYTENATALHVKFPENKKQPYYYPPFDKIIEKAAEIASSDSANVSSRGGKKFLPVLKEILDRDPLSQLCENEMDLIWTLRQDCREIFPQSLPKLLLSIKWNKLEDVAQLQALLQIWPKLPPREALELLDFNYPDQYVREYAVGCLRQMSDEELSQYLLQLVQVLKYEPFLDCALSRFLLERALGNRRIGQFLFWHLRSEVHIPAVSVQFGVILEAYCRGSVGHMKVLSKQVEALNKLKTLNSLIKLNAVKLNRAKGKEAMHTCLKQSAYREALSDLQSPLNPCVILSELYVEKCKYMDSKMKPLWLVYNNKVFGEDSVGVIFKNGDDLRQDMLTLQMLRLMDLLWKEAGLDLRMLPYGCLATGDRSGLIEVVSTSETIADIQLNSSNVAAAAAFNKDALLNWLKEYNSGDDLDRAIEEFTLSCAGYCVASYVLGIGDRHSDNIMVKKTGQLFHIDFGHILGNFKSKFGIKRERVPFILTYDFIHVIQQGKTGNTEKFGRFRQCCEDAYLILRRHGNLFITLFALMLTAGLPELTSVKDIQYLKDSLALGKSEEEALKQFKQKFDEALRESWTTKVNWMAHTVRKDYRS
recombinant human PI3Kβ (6-His(p110-p85α)), sequence (P27986 whole entry partner): as the sequence (P27986 whole entry partner) above
recombinant human PI3Kα (6-His(p110-p85α)), sequence (P42336 whole entry): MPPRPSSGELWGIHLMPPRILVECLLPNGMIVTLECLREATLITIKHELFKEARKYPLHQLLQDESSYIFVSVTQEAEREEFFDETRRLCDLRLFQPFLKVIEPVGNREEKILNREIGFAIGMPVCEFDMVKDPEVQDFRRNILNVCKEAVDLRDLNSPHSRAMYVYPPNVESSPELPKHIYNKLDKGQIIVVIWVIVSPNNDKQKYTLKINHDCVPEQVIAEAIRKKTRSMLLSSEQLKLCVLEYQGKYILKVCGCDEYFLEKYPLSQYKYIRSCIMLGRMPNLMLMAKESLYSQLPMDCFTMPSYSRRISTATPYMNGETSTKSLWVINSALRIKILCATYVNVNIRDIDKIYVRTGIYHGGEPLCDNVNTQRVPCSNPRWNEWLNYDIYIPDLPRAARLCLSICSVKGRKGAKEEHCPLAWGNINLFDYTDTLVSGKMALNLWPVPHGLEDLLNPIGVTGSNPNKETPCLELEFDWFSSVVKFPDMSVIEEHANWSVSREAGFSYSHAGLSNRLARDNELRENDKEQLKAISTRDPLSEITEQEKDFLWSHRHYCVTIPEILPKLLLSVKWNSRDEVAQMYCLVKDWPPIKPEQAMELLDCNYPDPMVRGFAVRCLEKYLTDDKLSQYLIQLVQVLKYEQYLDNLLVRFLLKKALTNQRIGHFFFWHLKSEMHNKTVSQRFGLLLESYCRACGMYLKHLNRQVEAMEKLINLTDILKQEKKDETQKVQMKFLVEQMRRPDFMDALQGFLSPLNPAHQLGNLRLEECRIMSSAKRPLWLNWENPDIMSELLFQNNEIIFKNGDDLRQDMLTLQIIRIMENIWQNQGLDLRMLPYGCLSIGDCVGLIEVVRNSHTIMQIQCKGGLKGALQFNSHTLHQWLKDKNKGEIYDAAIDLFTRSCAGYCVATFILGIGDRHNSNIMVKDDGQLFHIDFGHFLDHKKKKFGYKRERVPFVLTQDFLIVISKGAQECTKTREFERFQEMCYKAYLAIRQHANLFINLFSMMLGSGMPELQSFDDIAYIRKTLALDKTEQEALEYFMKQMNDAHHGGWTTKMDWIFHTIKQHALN
recombinant human PI3Kα (6-His(p110-p85α)), sequence (P27986 whole entry partner): as the sequence (P27986 whole entry partner) above

By IC50 is commonly meant the midpoint of a concentration-inhibition curve. Take `Cc1nc(Nc2cccc(N3CCCOC3=O)n2)sc1-c1cc2c(c(S(=O)(=O)NC3COC3)c1)C(=O)N([C@@H](C)C1CC1)C2` [Example 35, 2-[(1S)-1-Cyclopropylethyl]-6-(4-methyl-2-{[6-(2-oxo-1,3-oxazinan-3-yl)pyridin-2-yl]amino}-1,3-thiazol-5-yl)-N-(oxetan-3-yl)-3-oxo-2,3-dihydro-1H-isoindole-4-sulfonamide]: the IC50 in assay [1] was 0.9 nM; in assay [2] it was 484 nM; in assay [3] it was 53 nM; in assay [4], 1 nM.
As for `Cc1nc(Nc2cccc(N3CCCCC3=O)n2)sc1-c1cc2c(c(S(C)(=O)=O)c1)C(=O)N([C@@H](C)C1CC1)C2` [Example 4, 2-[(1S)-1-Cyclopropylethyl]-5-(4-methyl-2-{[6-(2-oxopiperidin-1-yl)pyridin-2-yl]amino}-1,3-thiazol-5-yl)-7-(methylsulfonyl)-2,3-dihydro-1H-isoindol-1-one], the half-inhibitory concentration (IC50) was found to be 250 nM in assay [2], 16 nM in assay [3] and 1 nM in assay [4].
Take `Cc1nc(Nc2cccc(N3CCNCC3=O)n2)sc1-c1cc2c(c(S(C)(=O)=O)c1)C(=O)N([C@@H](C)C1CC1)C2` [Example 40, 2-[(1S)-1-Cyclopropylethyl]-5-(4-methyl-2-{[6-(2-oxopiperazin-1-yl)pyridin-2-yl]amino}-1,3-thiazol-5-yl)-7-(methylsulfonyl)-2,3-dihydro-1H-isoindol-1-one]: the 50% inhibitory concentration (IC50) in assay [1] came out at 1.7 nM; in assay [2], 729 nM; in assay [3] it was 104 nM; in assay [4], 1.6 nM.
For `CNS(=O)(=O)c1cc(-c2sc(Nc3cccc(N4CCNCC4=O)n3)nc2C)cc2c1C(=O)N([C@@H](C)C1CC1)C2` [Example 41, 2-[(1S)-1-Cyclopropylethyl]-N-methyl-6-(4-methyl-2-{[6-(2-oxopiperazin-1-yl)pyridin-2-yl]amino}-1,3-thiazol-5-yl)-3-oxo-2,3-dihydro-1H-isoindole-4-sulfonamide], in that order: 0.9 nM, 298 nM, 72 nM and 1.3 nM.
For `CCNS(=O)(=O)c1cc(-c2sc(Nc3cccc(N(C)C(=O)COC)n3)nc2C)cc2c1C(=O)N([C@@H](C)C1CC1)C2` [Example 26, N-{6-[(5-{2-[(1S)-1-Cyclopropylethyl]-7-(ethylsulfamoyl)-1-oxo-2,3-dihydro-1H-isoindol-5-yl}-4-methyl-1,3-thiazol-2-yl)amino]pyridin-2-yl}-2-methoxy-N-methylacetamide], in that order: 0.5 nM, 562 nM, 110 nM and 1.1 nM.
Take `CNS(=O)(=O)c1cc(-c2sc(Nc3cccc(N4CC(=O)N5CCC[C@H]5C4=O)n3)nc2C)cc2c1C(=O)N([C@@H](C)C1CC1)C2` [Example 23, 2-[(1S)-1-Cyclopropylethyl]-6-[2-({6-[(8aS)-1,4-dioxohexahydropyrrolo[1,2-a]pyrazin-2(1H)-yl]pyridin-2-yl}amino)-4-methyl-1,3-thiazol-5-yl]-N-methyl-3-oxo-2,3-dihydro-1H-isoindole-4-sulfonamide]: the IC50 in assay [1] came to 19.4 nM; in assay [2] it was 4880 nM; in assay [3], 368 nM; in assay [4], 1.3 nM.
As to `CNS(=O)(=O)c1cc(-c2sc(Nc3cccc(N4CCN(C)CC4=O)n3)nc2C)cc2c1C(=O)N([C@@H](C)C1CC1)C2` [Example 22, 2-[(1S)-1-Cyclopropylethyl]-N-methyl-6-(4-methyl-2-{[6-(4-methyl-2-oxopiperazin-1-yl)pyridin-2-yl]amino}-1,3-thiazol-5-yl)-3-oxo-2,3-dihydro-1H-isoindole-4-sulfonamide], the concentration for half-maximal inhibition (IC50) in assay [1] turned out to be 1.3 nM; in assay [2], 328 nM; in assay [3], 38 nM; in assay [4] it was 1 nM.
Take `Cc1nc(Nc2cccc(N3CCNC3=O)n2)sc1-c1cc2c(c(S(C)(=O)=O)c1)C(=O)N([C@@H](C)C1CC1)C2` [Example 6, 2-[(1S)-1-Cyclopropylethyl]-5-(4-methyl-2-{[6-(2-oxoimidazolidin-1-yl)pyridin-2-yl]amino}-1,3-thiazol-5-yl)-7-(methylsulfonyl)-2,3-dihydro-1H-isoindol-1-one]: the half-inhibitory concentration (IC50) in assay [1] was 0.7 nM; in assay [2], 219 nM; in assay [3], 23 nM; in assay [4], 0.8 nM.
Taken in the same sequence, the figures for `CNS(=O)(=O)c1cc(-c2sc(Nc3cccc(N4C[C@H](O)CC4=O)n3)nc2C)cc2c1C(=O)N([C@@H](C)C1CC1)C2` [Example 55, 2-[(1S)-1-Cyclopropylethyl]-6-[2-({6-[(4R)-4-hydroxy-2-oxopyrrolidin-1-yl]pyridin-2-yl}amino)-4-methyl-1,3-thiazol-5-yl]-N-methyl-3-oxo-2,3-dihydro-1H-isoindole-4-sulfonamide] were 1.1 nM, 386 nM, 40 nM and 0.9 nM.
As for `CNS(=O)(=O)c1cc(-c2sc(Nc3cccc(N4CCCNCC4=O)n3)nc2C)cc2c1C(=O)N([C@@H](C)C1CC1)C2` [Example 52, 2-[(1S)-1-Cyclopropylethyl]-N-methyl-6-(4-methyl-2-{[6-(2-oxo-1,4-diazepan-1-yl)pyridin-2-yl]amino}-1,3-thiazol-5-yl)-3-oxo-2,3-dihydro-1H-isoindole-4-sulfonamide], the IC50 in assay [1] turned out to be 18.9 nM; in assay [4], 22.5 nM.
As to `Cc1nc(Nc2cccc(N3CCCOC3=O)n2)sc1-c1cc2c(c(S(=O)(=O)NC(C)C)c1)C(=O)N([C@@H](C)C(F)(F)F)C2` [Example 29, 6-(4-Methyl-2-{[6-(2-oxo-1,3-oxazinan-3-yl)pyridin-2-yl]amino}-1,3-thiazol-5-yl)-3-oxo-N-(propan-2-yl)-2-[(2S)-1,1,1-trifluoropropan-2-yl]-2,3-dihydro-1H-isoindole-4-sulfonamide], the 50% inhibitory concentration (IC50) in assay [1] came to 0.5 nM; in assay [2] it was 62 nM; in assay [3] it was 47 nM; in assay [4], 2.2 nM.
As to `Cc1nc(Nc2cccc(N3CCCC3=O)n2)sc1-c1cc2c(c(S(C)(=O)=O)c1)C(=O)N([C@@H](C)C(F)(F)F)C2` [Example 10, 5-(4-Methyl-2-{[6-(2-oxopyrrolidin-1-yl)pyridin-2-yl]amino}-1,3-thiazol-5-yl)-7-(methylsulfonyl)-2-[(2S)-1,1,1-trifluoropropan-2-yl]-2,3-dihydro-1H-isoindol-1-one], the IC50 stood at 575 nM in assay [2], 78 nM in assay [3] and 0.9 nM in assay [4].
For `Cc1nc(Nc2cccc(N3CCOCC3=O)n2)sc1-c1cc2c(c(S(C)(=O)=O)c1)C(=O)N([C@@H](C)C1CC1)C2` [Example 7, 2-[(1S)-1-Cyclopropylethyl]-5-(4-methyl-2-{[6-(3-oxomorpholin-4-yl)pyridin-2-yl]amino}-1,3-thiazol-5-yl)-7-(methylsulfonyl)-2,3-dihydro-1H-isoindol-1-one], in that order: 688 nM, 57 nM and 0.9 nM.
As for `CNS(=O)(=O)c1cc(-c2sc(Nc3cccc(N4CCCCC4=O)n3)nc2C)cc2c1C(=O)N([C@@H](C)C1CC1)C2` [Example 19, 2-[(1S)-1-Cyclopropylethyl]-N-methyl-6-(4-methyl-2-{[6-(2-oxopiperidin-1-yl)pyridin-2-yl]amino}-1,3-thiazol-5-yl)-3-oxo-2,3-dihydro-1H-isoindole-4-sulfonamide], the IC50 in assay [2] was determined as 168 nM; in assay [3], 18 nM.
Consider `Cc1nc(Nc2cccc(N3CCOCC3=O)n2)sc1-c1cc2c(c(S(=O)(=O)NC3COC3)c1)C(=O)N([C@@H](C)C1CC1)C2` [Example 31, 2-[(1S)-1-Cyclopropylethyl]-6-(4-methyl-2-{[6-(3-oxomorpholin-4-yl)pyridin-2-yl]amino}-1,3-thiazol-5-yl)-N-(oxetan-3-yl)-3-oxo-2,3-dihydro-1H-isoindole-4-sulfonamide], for which the IC50 in assay [2] is 596 nM; in assay [3], 85 nM; in assay [4], 0.8 nM.

The values are drawn from patent US10961236B2, “(S)-2-(1-cyclopropylethyl)-5-(4-methyl-2-((6-(2-oxopyrrolidin-1-yl)pyridin-2-yl)amino) thiazol-5-yl)-7-(methylsulfonyl)isoindolin-1-one as a phosphatidylinositol 3-kinase inhibitor” (AstraZeneca AB, priority 2016, dated 2021).
